Data reported in publication PMC6050476, “Pre-clinical Pharmacokinetic and Metabolomic Analyses of Isorhapontigenin, a Dietary Resveratrol Derivative” (Frontiers in Pharmacology, 2018).

Tests used:
plasma metabolites = test: Plasma metabolomic profiling after 1-week isorhapontigenin intervention (GC–MS/MS); assay type: in vivo, Sprague-Dawley rats; settings: 1-week daily oral ISO 100 μmol/kg vs vehicle, rat plasma
Procedure: Twenty-two rats were divided into four groups. Group 1 (n = 5) received a single bolus intravenous injection of ISO at the dose of 90 μmol/kg (23.2 mg/kg). Serial blood samples were collected before dosing and at 5, 15, 30, 60, 90, 120, 180, 240, 300, 420, 540, and 720 min after intravenous injection. Group 2 (n = 5) received a single oral administration of ISO at the dose of 200 μmol/kg (51.6 mg/kg). Serial blood samples were collected before dosing and at 15, 30, 45, 60, 90, 120, 180, 240, 300, 420, 540, and 720 min after oral gavage. Group 3 (n = 5) received daily oral pre-treatment of oral dosing vehicle (2 mL/kg) while Group 4 (n = 7) received daily oral pre-treatment of ISO at the dose of 100 μmol/kg (25.8 mg/kg) for 1 week. On day 7, ∼8–10 h after the last pre-treatment dose, surgery was performed on rats in Groups 3 and 4 for jugular vein cannulation, and blood samples were also collected from Groups 3 and 4 for metabolomic study. On day 8, the pharmacokinetic study was carried out on these two groups of animals at the dose of 100 μmol/kg (25.8 mg/kg) using the same blood sampling schedule as Group 2.
The plasma samples collected from rats receiving 1-week daily oral dosing of ISO at 100 μmol/kg (25.8 mg/kg) were subjected to metabolomic study using the rats receiving vehicle as control.
Plasma samples (30 μL aliquots in Eppendorf tubes) were thawed to room temperature (25°C). Myristic-d27 acid (20 μL of 200 μg/mL solution in methanol, IS) and 200 μL of methanol were added to each sample. Samples were vortexed for 5 min at room temperature and centrifuged for 10 min at 15,000 g (4°C). The top 200 μL of each supernatant was transferred to a glass centrifuge tube and dried under nitrogen gas. The dried samples were re-suspended in 100 μL of toluene, vortexed vigorously for 10 s, and dried again under nitrogen. A two-step derivatization method was used for chemical derivatization of the metabolites. Samples were first incubated with 50 μL of 2% methoxy-amine chloride in pyridine for 1.5 h at 60°C. Next, 50 μL of […] was added and the samples were incubated again for 1 h at 60°C. A total of 80 μL of derivatized samples were transferred to glass vials for GC–MS/MS analysis ([Chen et al., 2016a]). Pooled rat plasma from different plasma samples was used as QC and distilled water as blank samples. Two pooled plasma samples were injected before the first study sample and three pooled plasma samples were injected after every six study samples which serve as QC. The blank samples were injected at the beginning, at the middle, and at the end of the sample batch ([Phua et al., 2015]; [Chen et al., 2016a]).
GC–MS/MS analysis was performed using a Shimadzu TQ8040 gas chromatography-triple quadrupole mass spectrometer (Shimadzu Corporation, Japan). The GC injector port was set at 250°C and injection volume was 1 μL with a spilt ratio of 1:10. Chromatographic separation was achieved by a capillary column (BPX-5, 30 m × 0.25 mm × 0.25 μm, SGE Analytical Science, Australia) through constant helium carrier gas flow at 1.14 mL/min. The oven temperature was first held at 60°C for 2 min, followed by increasing temperature ramp of 15°C/min to 330°C, and then held at 330°C for 3 min. The interface and ion source were set at 280 and 200°C, respectively. The mass spectrometer was operated in the MRM mode.
The Shimadzu Smart Metabolites Database (Shimadzu Corporation, Japan) which contains a panel of 475 different endogenous metabolites was applied to identify the metabolites in rat plasma samples in this widely targeted metabolomics analysis. This database contains the retention indices and two MRM transitions of each of the 475 endogenous metabolites which facilitate simple, fast, and reliable metabolite identification and semi-quantification. This strategy has been successfully applied to many studies ([Hashimoto et al., 2017]; [Nishiumi et al., 2017]; [Tomonaga et al., 2018]). […]

[1] = Stock solution stability of isorhapontigenin; assay type: physicochemical; settings: 24 °C, 10 days; stock solution in DMSO
Procedure: (§1) Stock solutions of ISO were prepared by dissolution in DMSO and they were stored at room temperature. The stock solutions were further diluted using blank rat plasma to prepare the calibration standards and QC samples. The stock solution of IS was dissolved in acetonitrile to a concentration of 10 μg/mL. 100 μL IS solution was aliquoted into 1.5-mL polypropylene tubes for storage at −80°C. During sample preparation, this solution was further diluted to the working concentration of 10 ng/mL using acetonitrile containing 0.18 μM of disodium EDTA and stored at 4°C.
(§2) The dilution integrity was confirmed using a dilution factor of 20. In the presence of L-ascorbic acid (0.8 mg/mL), ISO appeared to stable in plasma; similarly, addition of EDTA in IS acetonitrile solution (0.18 μM) enhanced the post-preparative stability. The details in accuracy, precision, stability, and matrix effect can be found in Supplementary Tables S1–S3.

[2] = Stability of isorhapontigenin in rat plasma QC samples under different storage conditions; assay type: in vitro ADME, Sprague-Dawley rat; settings: for Freeze thaw stability (% remaining): 3 cycles; for Post preparative stability (% remaining): 4 °C, 6 h; for Long term stability (% remaining): -80 °C, 14 days; for Short term stability (% remaining): on ice, 3 h
Procedure: as §1
The calibration range was 1–1000 ng/mL. A simple protein precipitation procedure was used for sample cleanup prior to LC–MS/MS analysis ([Chen et al., 2015], [2016b]). Three volumes of 10 ng/mL IS working solution (^13C isotopically labeled resveratrol in acetonitrile–0.18 μM disodium EDTA) were added to one volume of plasma sample spiked with of L-ascorbic acid at a final concentration of 0.8 mg/mL. After vigorous vortex, centrifugation of samples was performed at 15,000 g for 10 min at 4°C. Subsequently, the clear supernatants were transferred into HPLC vials. During each LC–MS/MS analysis, 1 μL of supernatant was injected into the system.
as §2

COc1cc(/C=C/c2cc(O)cc(O)c2)ccc1O [isorhapontigenin, trans-3,5,4′-trihydroxy-3′-methoxystilbene]
Fold change of plasma 2-Aminoisobutyric acid (plasma metabolites): 1.351 | Fold change of plasma 4-Hydroxyproline (plasma metabolites): 0.564 | Fold change of plasma Acetylglycine (plasma metabolites): 0.508 | Fold change of plasma Allantoin (plasma metabolites): 0.545 | Fold change of plasma Arachidonic acid (plasma metabolites): 0.789 | Fold change of plasma Aspartic acid (plasma metabolites): 0.475 | Fold change of plasma Cadaverine (plasma metabolites): 0.54 | Fold change of plasma Catechol (plasma metabolites): 1.411 | Fold change of plasma Cholesterol (plasma metabolites): 0.789 | Fold change of plasma Eicosapentaenoic acid (plasma metabolites): 0.762 | Fold change of plasma Fructose (plasma metabolites): 0.608 | Fold change of plasma Glycerol 2-phosphate (plasma metabolites): 0.73 | Fold change of plasma Glycyl-glycine (plasma metabolites): 0.648 | Fold change of plasma Linoleic acid (plasma metabolites): 0.82 | Fold change of plasma N-Acetyl-ornithine (plasma metabolites): 0.474 | Fold change of plasma N-Acetylglutamine (plasma metabolites): 0.804 | Fold change of plasma Psicose (plasma metabolites): 0.709 | Fold change of plasma Sorbose (plasma metabolites): 0.698 | Fold change of plasma Tagatose (plasma metabolites): 0.705 | Fold change of plasma Thymine (plasma metabolites): 1.198 | Fold change of plasma Tryptamine (plasma metabolites): 1.469 | effect on plasma glucose levels (plasma metabolites; no food restriction): did not change glucose levels | Stock solution stability (% remaining) [1]: 96.7 ± 3.0 % remaining | Freeze thaw stability (% remaining) ([2]; QC 2 ng/ml in rat plasma): 98.4 ± 7.6 % remaining | Freeze thaw stability (% remaining) ([2]; QC 400 ng/ml in rat plasma): 94.0 ± 2.4 % remaining | Freeze thaw stability (% remaining) ([2]; QC 800 ng/ml in rat plasma): 92.3 ± 1.2 % remaining | Post preparative stability (% remaining) ([2]; QC 2 ng/ml): 108.0 ± 6.1 % remaining | Post preparative stability (% remaining) ([2]; QC 400 ng/ml): 108.0 ± 1.0 % remaining | Post preparative stability (% remaining) ([2]; QC 800 ng/ml): 108.0 ± 4.1 % remaining | Long term stability (% remaining) ([2]; QC 2 ng/ml in rat plasma): 87.9 ± 2.5 % remaining | Long term stability (% remaining) ([2]; QC 400 ng/ml in rat plasma): 101.0 ± 3.0 % remaining | Long term stability (% remaining) ([2]; QC 800 ng/ml in rat plasma): 97.0 ± 6.5 % remaining | Short term stability (% remaining) ([2]; QC 2 ng/ml in rat plasma): 104.0 ± 6.0 % remaining | Short term stability (% remaining) ([2]; QC 400 ng/ml in rat plasma): 102.0 ± 5.4 % remaining | Short term stability (% remaining) ([2]; QC 800 ng/ml in rat plasma): 98.7 ± 6.4 % remaining
